The results in this text go back to ChEMBL document CHEMBL1158595, “2' biaryl amides as novel and subtype selective M1 agonists. Part II: Further optimization and profiling” (Bioorg Med Chem Lett, 2010).

Series [1] deals with T1, Muscarinic acetylcholine receptor M1 (Homo sapiens) (UniProt P11229).
T1 sequence (whole entry): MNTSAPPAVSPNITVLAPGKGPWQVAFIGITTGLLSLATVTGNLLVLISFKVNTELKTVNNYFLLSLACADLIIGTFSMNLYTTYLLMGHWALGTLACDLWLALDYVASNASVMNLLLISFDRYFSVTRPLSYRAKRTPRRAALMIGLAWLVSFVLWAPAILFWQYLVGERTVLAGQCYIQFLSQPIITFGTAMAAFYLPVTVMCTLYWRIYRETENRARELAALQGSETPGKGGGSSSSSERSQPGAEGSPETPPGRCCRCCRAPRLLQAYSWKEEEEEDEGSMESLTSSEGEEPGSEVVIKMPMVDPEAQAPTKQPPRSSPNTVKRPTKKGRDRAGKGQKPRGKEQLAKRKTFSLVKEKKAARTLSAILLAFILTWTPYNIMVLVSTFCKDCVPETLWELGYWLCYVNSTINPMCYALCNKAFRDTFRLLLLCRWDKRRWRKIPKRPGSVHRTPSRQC
The experiment in a line: Intrinsic activity at human muscarinic M1 receptor expressed in CHO cells assessed as effect on acetylcholine-induced intracellular calcium level by FLIPR assay relative to acetylcholine. The series is classed as functional, cell-based. Background: Calcium flux is commonly read through the fluorescence of an indicator in the cells.

Series [2] has as its target T2, Muscarinic acetylcholine receptor M5 (Homo sapiens, UniProt P08912).
T2 sequence (P08912 whole entry): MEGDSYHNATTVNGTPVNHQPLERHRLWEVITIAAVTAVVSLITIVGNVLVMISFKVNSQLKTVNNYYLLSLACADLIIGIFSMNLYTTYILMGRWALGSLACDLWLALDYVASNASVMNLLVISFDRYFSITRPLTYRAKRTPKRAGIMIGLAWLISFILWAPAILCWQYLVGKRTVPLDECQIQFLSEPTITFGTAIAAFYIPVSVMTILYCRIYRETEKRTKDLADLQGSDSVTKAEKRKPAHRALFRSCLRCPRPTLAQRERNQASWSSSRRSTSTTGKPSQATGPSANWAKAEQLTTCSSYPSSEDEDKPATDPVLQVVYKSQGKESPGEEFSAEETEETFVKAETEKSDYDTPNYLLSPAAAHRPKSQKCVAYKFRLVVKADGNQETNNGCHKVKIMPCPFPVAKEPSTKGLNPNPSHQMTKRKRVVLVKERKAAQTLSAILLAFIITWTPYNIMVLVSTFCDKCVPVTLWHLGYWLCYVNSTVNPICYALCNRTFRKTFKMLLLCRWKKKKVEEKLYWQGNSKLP
As to the kind of experiment: Inhibition of human muscarinic M5 receptor expressed in CHO cells. It counts as cell-based.

The nature of series [3]: Ratio of drug level in brain to blood in rat at 3 mg/kg, po. It counts as ADME, organism-based. Further details: dose 3 mg/kg, route oral.
The target in series [4] is T3, Muscarinic acetylcholine receptor M2 (Homo sapiens, UniProt P08172).
T3 sequence (P08172 whole entry): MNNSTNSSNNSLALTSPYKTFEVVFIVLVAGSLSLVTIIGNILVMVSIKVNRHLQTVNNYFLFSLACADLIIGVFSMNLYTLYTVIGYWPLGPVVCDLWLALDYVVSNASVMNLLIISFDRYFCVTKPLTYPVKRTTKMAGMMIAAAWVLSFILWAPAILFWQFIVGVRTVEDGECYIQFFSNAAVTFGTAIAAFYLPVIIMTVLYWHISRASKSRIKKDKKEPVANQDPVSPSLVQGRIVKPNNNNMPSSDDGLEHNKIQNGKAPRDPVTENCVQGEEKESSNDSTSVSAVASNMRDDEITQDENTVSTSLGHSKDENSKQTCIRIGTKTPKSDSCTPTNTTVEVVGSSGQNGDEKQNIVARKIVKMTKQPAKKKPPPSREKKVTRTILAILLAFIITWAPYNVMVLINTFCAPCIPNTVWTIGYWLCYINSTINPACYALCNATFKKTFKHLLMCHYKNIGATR
As to the kind of experiment: Inhibition of human muscarinic M2 receptor expressed in CHO cells. It counts as cell-based.

Series [5] has as its system Rattus norvegicus. As to the kind of experiment: AUC in rat at 3 mg/kg, po. The arrangement: dose 3 mg/kg, route oral. As to conditions: in vivo. The series is classed as ADME, organism-based, Plasma.
For series [6], the target named is T4, Muscarinic acetylcholine receptor M1 (Homo sapiens, UniProt P11229).
T4 sequence (P11229 whole entry): T1 sequence (whole entry)
The experiment in a line: Agonist activity at human muscarinic M1 receptor expressed in CHO cells assessed as effect on acetylcholine-induced intracellular calcium level by FLIPR assay. The series is classed as functional, cell-based.

The target of series [7] is T5, Muscarinic acetylcholine receptor M3 (Homo sapiens, UniProt P20309). The experiment in a line: Inhibition of human muscarinic M3 receptor expressed in CHO cells. The series is classed as cell-based.
Target sequence in this assay (P20309 whole entry): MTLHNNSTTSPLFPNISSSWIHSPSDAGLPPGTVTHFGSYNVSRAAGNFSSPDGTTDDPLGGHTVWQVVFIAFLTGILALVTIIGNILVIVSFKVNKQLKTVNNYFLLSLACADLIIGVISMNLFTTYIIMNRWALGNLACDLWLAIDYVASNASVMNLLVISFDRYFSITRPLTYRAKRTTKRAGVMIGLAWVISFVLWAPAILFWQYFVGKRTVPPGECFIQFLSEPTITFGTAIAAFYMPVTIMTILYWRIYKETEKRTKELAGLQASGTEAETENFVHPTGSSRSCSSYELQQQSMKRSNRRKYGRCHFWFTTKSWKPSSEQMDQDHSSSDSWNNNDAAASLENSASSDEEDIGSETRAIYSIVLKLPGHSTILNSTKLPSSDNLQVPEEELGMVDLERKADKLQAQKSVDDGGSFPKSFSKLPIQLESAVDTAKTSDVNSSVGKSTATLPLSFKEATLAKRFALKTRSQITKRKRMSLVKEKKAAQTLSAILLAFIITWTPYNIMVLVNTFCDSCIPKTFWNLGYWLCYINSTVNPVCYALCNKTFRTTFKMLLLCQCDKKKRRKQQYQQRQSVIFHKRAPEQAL
A short description of series [8]: Half life in rat at 3 mg/kg, po. It counts as ADME, organism-based. The arrangement: dose 3 mg/kg, route oral. As to conditions: in vivo.
Series [9] deals with T6, Muscarinic acetylcholine receptor M4 (Homo sapiens, UniProt P08173).
T6 sequence (P08173 whole entry): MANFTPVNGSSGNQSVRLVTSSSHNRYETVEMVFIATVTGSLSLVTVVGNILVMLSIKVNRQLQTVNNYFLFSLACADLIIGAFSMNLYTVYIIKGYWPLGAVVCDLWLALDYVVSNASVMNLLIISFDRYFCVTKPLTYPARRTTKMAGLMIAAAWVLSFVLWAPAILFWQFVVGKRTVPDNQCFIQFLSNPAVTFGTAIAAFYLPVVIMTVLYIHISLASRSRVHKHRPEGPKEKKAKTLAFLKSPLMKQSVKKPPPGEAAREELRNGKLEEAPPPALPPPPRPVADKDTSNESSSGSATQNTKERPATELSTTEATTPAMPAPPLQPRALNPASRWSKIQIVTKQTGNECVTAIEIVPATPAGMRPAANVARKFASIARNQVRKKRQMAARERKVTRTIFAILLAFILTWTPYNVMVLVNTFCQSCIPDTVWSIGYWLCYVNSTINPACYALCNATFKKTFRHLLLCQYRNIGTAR
As to the kind of experiment: Inhibition of human muscarinic M4 receptor expressed in CHO cells. The series is classed as cell-based.

The species named for series [10] is Homo sapiens. As to the kind of experiment: Selectivity ratio of human muscarinic M4 receptor to human muscarinic M1 receptor.
The species named for series [11] is Homo sapiens. As to the kind of experiment: Selectivity ratio of human muscarinic M5 receptor to human muscarinic M1 receptor.
Series [12] deals with Muscarinic acetylcholine receptor M1 and M3 (Homo sapiens) (UniProt P20309+P11229). As to the kind of experiment: Selectivity ratio of human muscarinic M3 receptor to human muscarinic M1 receptor.
Series [13] has as its target Muscarinic acetylcholine receptors; M1 & M2 (Homo sapiens) (UniProt P11229+P08172). As to the kind of experiment: Selectivity ratio of human muscarinic M2 receptor to human muscarinic M1 receptor.
In series [14] the test system is Rattus norvegicus. The experiment in a line: AUC in rat at 10 mg/kg, sc. As to conditions: in vivo. It counts as ADME, organism-based, Plasma. Further details: dose 10 mg/kg, route subcutaneous.
For series [15], the target named is T5, Muscarinic acetylcholine receptor M3. The experiment in a line: Agonist activity at human muscarinic M3 receptor expressed in CHO cells assessed as effect on acetylcholine-induced intracellular calcium level by FLIPR assay. The series is classed as functional, cell-based.
Target sequence in this assay (P20309 whole entry, looked up): as the sequence (P20309 whole entry) above
The nature of series [16]: Ratio of drug level in brain to blood in rat at 10 mg/kg, sc. The series is classed as ADME, organism-based. Further details: dose 10 mg/kg, route subcutaneous.
Series [17] addresses T7, Muscarinic acetylcholine receptor M5 (Homo sapiens) (UniProt P08912).
T7 sequence (whole entry): T2 sequence (P08912 whole entry)
The experiment in a line: Agonist activity at human muscarinic M5 receptor expressed in CHO cells assessed as effect on acetylcholine-induced intracellular calcium level by FLIPR assay. The series is classed as functional, cell-based.

Series [18] can be described thus: Half life in rat at 10 mg/kg, sc. As to conditions: in vivo. It counts as ADME, organism-based. Further details: dose 10 mg/kg, route subcutaneous.
Series [19] has as its target T8, Muscarinic acetylcholine receptor M4 (Homo sapiens) (UniProt P08173).
T8 sequence (whole entry): T6 sequence (P08173 whole entry)
As to the kind of experiment: Agonist activity at human muscarinic M4 receptor expressed in CHO cells assessed as effect on acetylcholine-induced intracellular calcium level by FLIPR assay. The series is classed as functional, cell-based.

Series [20] concerns the target T9, Muscarinic acetylcholine receptor M2 (Homo sapiens) (UniProt P08172).
T9 sequence (whole entry): T3 sequence (P08172 whole entry)
The experiment in a line: Agonist activity at human muscarinic M2 receptor expressed in CHO cells assessed as effect on acetylcholine-induced intracellular calcium level by FLIPR assay. The series is classed as functional, cell-based.

The source made the active and inactive calls.

Chain of Muscarinic acetylcholine receptor M1 and M3 (Homo sapiens) (P20309 whole entry, looked up, one chain of several): as the sequence (P20309 whole entry) above

As for `C[C@H]1CNCC[C@]1(F)CNC(=O)c1c(F)cccc1-c1cccc(Cl)c1`, the Intrinsic activity in series [1] is 85%. Moreover, the IC50 (usually the concentration needed to halve the response being measured) was 6310 nM in [2], 2510 nM in series [4], 5010 nM in series [7] and 3160 nM in [9]. Moreover, in [3], the Kp (usually tissue or fluid exposure divided by exposure in the circulation) turned out to be 0.3. The same compound returned an AUC in series [5] of 2221 ng·h/g. For the same compound, the EC50 (usually the concentration needed to bring the measured effect to its halfway point) in [6] was 10 nM. For the same compound, the half-life (usually the time needed for the level to fall by half in the phase considered) in series [8] is 3 h.
For `O=C(NCC1=CCNCC1)c1c(F)cccc1-c1cccc(Cl)c1`, the Intrinsic activity in [1] was determined as 91%. Also, the IC50 is 1580 nM in [2], 1260 nM in series [4], 3160 nM in series [7] and 7940 nM in [9]. Also, the EC50 in [6] was 3.16 nM.
As for `O=C(NCC1CCNCC1)c1ccccc1-c1nc(Cl)cs1`, the Ratio in series [10], in [11], in series [12] and in series [13] was 100 throughout. Besides, the EC50 was over 10000 nM in series [2]; over 10000 nM in series [4]; 251 nM in series [6]; over 10000 nM in series [7]; over 10000 nM in series [9].
As for `C[C@H]1CNCC[C@@H]1CNC(=O)c1c(F)cccc1-c1cccc(Cl)c1` (relative stereo), the Intrinsic activity in series [1] was 116%. Also, in series [14], the AUC is 1655 ng·h/g. Further, the result in series [15], in series [17], in [19] and in series [20] was inactive. The half-inhibitory concentration (IC50) is 501 nM in [2], 200 nM in [4], 39.8 nM in series [7] and 158 nM in series [9]. For the same compound, in [16], the Kp is 0.9. In series [18], this compound gave a half-life of 2.3 h. Besides, the EC50 in series [6] was 0.794 nM.
